≈ marks a conversion by molar mass, not a printed value.
Legend:
Klebsiella aerogenes E70 = test: Synergistic activity in vitro with amoxycillin; assay type: cell-based; design: Synergistic activity in vitro: unit not given beside the values; settings: for Synergistic activity in vitro: Klebsiella aerogenes E70
Staph. aureus Russell = test: Synergistic activity in vitro with amoxycillin; assay type: cell-based, Staphylococcus aureus; design: Synergistic activity in vitro: unit not given beside the values; settings: for Synergistic activity in vitro: Staph. aureus Russell
E. coli JT 39 = test: Synergistic activity in vitro with amoxycillin; assay type: cell-based, Escherichia coli; settings: for Synergistic activity in vitro: E. coli JT 39
S. aureus Russell = test: Antibacterial activity of quaternary amine derivatives alone; assay type: cell-based; settings: Staphylococcus aureus, compound alone
E. coli JT39 = test: as above; assay type: cell-based; settings: Escherichia coli, compound alone
K. aerogenes E70 = test: as above; assay type: cell-based; settings: Klebsiella aerogenes, compound alone
[1] = amoxycillin with inhibitor, Inhibitor Conc 1
[2] = amoxycillin with inhibitor, Inhibitor Conc 5
[3] = amoxycillin alone, no inhibitor

Row | Structure (SMILES) | Synergistic activity in vitro (Klebsiella aerogenes E70; [1]) | Synergistic activity in vitro (Klebsiella aerogenes E70; [2]) | Synergistic activity in vitro (Staph. aureus Russell; [1]) | Synergistic activity in vitro (E. coli JT 39; [1]) | Synergistic activity in vitro (E. coli JT 39; [2]) | MIC (S. aureus Russell) [µg/mL] | MIC (E. coli JT39) [µg/mL] | MIC (K. aerogenes E70) [µg/mL] | other results
1 | CC[N+](C)(C/C=C1\O[C@@H]2CC(=O)N2[C@H]1C(=O)[O-])Cc1ccccc1 (some centres unmarked) [Example No 2, 9-(N-Benzyl-N-ethvl-N-methyl)ammonio-9-deoxyclavulanate] | 12.5 | 3.1 | 0.16 | 16 | 4 |  |  |  | 
2 | CC[N+](C)(C)C/C=C1\O[C@@H]2CC(=O)N2[C@H]1C(=O)[O-] [Example No. 5, 9-(N,N-dimethyl-N-ethyl)ammonio-9-deoxyclavulanate] |  |  |  |  |  | 31 (≈ 122 µM) | 62 (≈ 244 µM) | 250 (≈ 983 µM) | 
3 | CC1(C)S[C@@H]2[C@H](NC(=O)[C@H](N)c3ccc(O)cc3)C(=O)N2[C@H]1C(=O)O [Amoxycillin, reference compound] |  |  |  |  |  |  |  |  | MIC µg/ml amoxycillin (Klebsiella aerogenes E70; K. aerogenes E70, amoxycillin alone): 1000 µg/mL; Synergistic activity in vitro (Klebsiella aerogenes E70; [3]): 500; MIC µg/ml amoxycillin (Staph. aureus Russell; S. aureus Russell, amoxycillin alone): 500 µg/mL; Synergistic activity in vitro (Staph. aureus Russell; [3]): 1000; MIC µg/ml amoxycillin (E. coli JT 39; E. coli JT39, amoxycillin alone): 2000 µg/mL; Synergistic activity in vitro (E. coli JT 39; [3]): ≥2000
4 | C[N+](C)(C/C=C1\O[C@@H]2CC(=O)N2[C@H]1C(=O)[O-])Cc1ccccc1 [Example No 1, 9-(N-Benzyl-N,N-dimethyl)ammonio-9-deoxyclavulanate] | 6.2 | 3.1 | 0.62 | 8 | 2 |  |  |  | Synergistic activity in vitro (Staph. aureus Russell; [2]): 0.08
5 | C[N+](C)(C)C/C=C1\O[C@@H]2CC(=O)N2[C@H]1C(=O)[O-] [Example No. 7, 9-N,N,N,-trimethylammonio-9-deoxyclavulanate] |  |  |  |  |  | 4 (≈ 16.6 µM) | 16 (≈ 66.6 µM) | 62.5 (≈ 260 µM) | 
6 | CC[N+](CC)(CC)C/C=C1\O[C@@H]2CC(=O)N2[C@H]1C(=O)[O-] [Example No. 6, 9-N,N,N-triethylammonio-9-deoxyclavulanate] |  |  |  |  |  | 31 (≈ 110 µM) | 125 (≈ 443 µM) | 500 (≈ 1770 µM) | 

Reference: EP0062407A1, “Therapeutic compounds containing beta-lactams” (BEECHAM GROUP PLC, priority 1981, dated 1982)
